In series [1] the test system is CD142/TF. As to the kind of experiment: CD142/TF expression in PBMC stimulated with TLR ligands, mass cytometry. The series is classed as cell-based, human. As to conditions: PBMC from HC stimulated 4 h, vs no treated (NT) controls. As to the method:
FIGS. 12A-12C: Inflammatory mediators increase CD142/TF expression and activity in monocytes. A) PBMC were isolated from HC and stimulated with Pam2CSK4(TLR2), Poly(I:C) (TLR3), and LPS (TLR4) for 4 h. […] Circles represent CD14+ monocytes. B) PBMC were isolated and stimulated with LPS and Ang II (vascular activator) and TF activity was quantified based on the ability of TF/FVIIa to activate FX to factor Xa. The amidolytic activity of the TF/FVIIa complex is quantitated by the amount of FXa produced using a FXa substrate which releases a chromophore upon cleavage. *p<0.05. C) To probe for the mechanisms that regulate TF expression in circulating monocytes, PBMC were isolated and stimulated with LPS with or without Annexin V (AnnV) to block apoptotic sensing (through masking of PS on target cells/particles) in monocytes. […] Results representative of 3 independent experiments.
To determine if inflammatory mediators can drive monocyte TF expression, CD14+ monocytes were isolated from PBMCs and stimulated with TLR ligands (Pam2Csk4; Poly(I:C); LPS) for 4 hours.
Measurement of inflammatory mediated TF expression. To determine if inflammatory mediators can drive monocyte TF expression, CD14+ monocytes were isolated from peripheral blood mononuclear cells (PBMC) and were stimulated with TLR ligands (Pam2Csk4; Poly(I:C); LPS) for 4 hours. To assess if monocyte-bound TF is active, a FXa activity assay was used. CD14+ monocytes were stimulated with LPS and FXa activity was assessed as a marker of TF activity.

For series [2], the system named is CD142/TF. The experiment in a line: qRT-PCR of CD142/TF in CD14+ monocytes treated with LPS with and without heparin. The series is classed as cell-based, human. As to the method: (§1) FIGS. 3A-3B: Heparin augments type I IFN/STAT1 signaling and tends to blunt CD142/TF transcriptional induction in response to LPS. A) CD14+ monocytes were stimulated with LPS (1 ug/ml; 4 h) and heparin (Hep) (10 u/ml) and signal pathway activation was probed using microfluidic proteomics. […] However, phospo-STAT1 activation was augmented in monocytes cotreated with LPS and Hep. Normalized activation determined by normalizing phospho proteins to total protein. B) qRT-PCR of CD14+ monocytes treated with LPS with and without Hep. […] Fold-change determined normalizing to GAPDH and to NT groups. *p<0.05; #p=0.07
PCR gene expression assay. RNA was then eluted in 32 uL RNase free water and concentration and purity were measured using Nanodrop. Applied Biosystems High-Capacity cDNA Reverse Transcription kit was used to convert RNA into cDNA for qPCR per the manufacturer's instructions. PCR was performed in 96 well plate using Taqman master mix and Taqman primers. 1× GAPDH-VIC and 1× target gene-FAM was used for each PCR reaction as housekeeping control gene and target gene respectively (total of 20 μL reaction volume). “No treatment control” is used to normalize each target gene expression for analysis of experimental groups.

In another series the test system is PBMC. As to the kind of experiment: Signaling pathway activation and inflammatory transcriptional programs in PBMC, heparin alone. Type of series: cell-based, human.
The next series relates to STAT1. As to the kind of experiment: Signal pathway activation in monocytes/PBMC treated with LPS and heparin, microfluidic proteomics (phospho-STAT1). The series is classed as cell-based, human. As to conditions: LPS 1 ug/ml 4 h cotreated with heparin 10 u/ml, vs LPS alone.
The next series has as its system p-p65 and p-PKC. As to the kind of experiment: Signal pathway activation in CD14+ monocytes treated with LPS and heparin, microfluidic proteomics (p-p65, p-PKC). As to conditions: LPS 1 ug/ml 4 h and heparin 10 u/ml, between groups. The series is classed as cell-based, human. The protocol:
as §1
PBMC treatment and stimulation. Approximately 10 million cells were equally divided into 4 fractions and treated with the following (for Hep experiments): 1) Hep (1.5 U/mL), 2) LPS (1 μg/mL), 3) LPS+Hep (1 μg/mL LPS with 1.5 U/mL Hep), and 4) RPMI medium alone. All treatments were performed for 2 hours in suspension at 37° C. and 5% CO2 with gentle vortexing every 30 minutes to prevent cell sedimentation. After 2-hour incubation, cells were centrifuged, and supernatants were collected. Cells were then resuspended in 1 mL PBS (without Ca^2+ and Mg ^2+) for downstream analysis

The next series concerns TF/FVIIa complex. The experiment in a line: Tissue factor activity assay (TF/FVIIa activation of FX to FXa, chromogenic substrate) in PBMC. Type of series: cell-based, human. The protocol: (§2) FIGS. 2A-2B: Monocytes activated by inflammatory stimuli increase TF/CD142 expression and activity. PBMC were isolated from healthy controls and stimulated with LPS (1 ug/ml for 4 h) and compared with no treatment (NT) controls. […] B) Tissue factor activity was assessed in both cells and supernatants in PBMC treated with LPS (1 ug/ml for 4 h). The tissue factor activity was quantified based on the ability of TF/FVIIa to activate FX to factor Xa. The amidolytic activity of the TF/FVIIa complex is quantitated by the amount of FXa produced using a highly specific FXa substrate which releases a chromophore upon cleavage. *p<0.05.
FIGS. 5A-5C: Annexin V peptide pretreatment blocks LPS induction of CD142/Tissue factor and CD142/Tissue factor activity. PBMC were pre-treated for 1 hr with Annexin V (10 ug/ml) or PBS and then stimulated with LPS (1 ug/ml) for 4 hours. PBMC were analyzed with either flow cytometry or tissue factor activity assay. A) Representative SSC vs. FSC gating strategy for Monocytes and Lymphocytes; B) CD142/Tissue factor was assessed by flow cytometry. […]
Active TF catalyzes the conversion of factor X to Xa; TF activity in plasma, microvesicles, and monocytes were measured by quantifying factor Xa activity using the fluorogenic factor Xa substrate (Abcam). TF activity was quantified based on the ability of TF/FVIIa to activate FX to FXa. […]

In another series the test system is CD142/Tissue factor. As to the kind of experiment: CD142/Tissue factor expression on PBMC populations by flow cytometry. The series is classed as cell-based, human. As to conditions: for CD142 expression (percent positive CD142+) in monocytes and granulocytes: PBMCs, 1 ug/mL LPS or 155 ug/mL LpA, 4 hours; for CD142/Tissue factor induction by LPS: PBMC pre-treated 1 hr with Annexin V 10 ug/ml, then LPS 1 ug/ml 4 hours. The protocol: as §2
FIGS. 5A-5C: Annexin V peptide pretreatment blocks LPS induction of CD142/Tissue factor and CD142/Tissue factor activity. PBMC were pre-treated for 1 hr with Annexin V (10 ug/ml) or PBS and then stimulated with LPS (1 ug/ml) for 4 hours. PBMC were analyzed with either flow cytometry or tissue factor activity assay. A) Representative SSC vs. FSC gating strategy for Monocytes and Lymphocytes; B) CD142/Tissue factor was assessed by flow cytometry. Annexin V pre-treatment blocks CD142/Tissue factor induction by LPS. C). CD142/Tissue factor activity using substrate cleavage and FXa generation. Results are representative of three independent experiments. *p<0.05
PBMCs were isolated and treated with 1 ug/mL LPS, 155 ug/mL LpA, or a combination of the above for 4 hours with gentle vortexing every 30 minutes. Cells were blocked with Tru-Stain FcX for 10 minutes and then treated with human anti CD142-PE for 30 minutes on ice. Cells were then analyzed via flow cytometry. (A) Representative FSC vs. SSC gating strategy. (B) Percent positive CD142+ for lymphocytes. (C) Percent positive CD142+ for monocytes. (D) Percent positive CD142+ for granulocytes. N=3. *p-value<0.0001 (ANOVA).

The next series has as its system NFκB. As to the kind of experiment: NFκB activation in THP1-Dual monocytes (SEAP, QUANTI-Blue assay). The following applies: 24 h, 77.5 ug/mL Lp(a). The series is classed as cell-based, human. As to the method: FIG. 10: Lp(a) increases NFκB induction on THP1-Dual monocytes; addition of TLR2 decreases activation effect of Lp(a). THP1-Dual monocytes stimulated for 24 h with 77.5 ug/mL Lp(a), 77.5 μg/mL Lp(a)+10 μg/mL TR2, 77.5 μg/mL Lp(a)+10 μg/mL TR4, and 100 ng/mL Pam2CSK4. After 24 h stimulation, supernatant was collected and NFκB activation was assessed by measuring the levels of SEAP using QUANTI-Blue assay. Levels of SEAP were determined by reading the optical density at 640 nm. *p-value<0.0001 (ANOVA).
THP1-Dual monocytes stimulated for 24 h with 77.5 ug/mL Lp(a), 77.5 ug/mL Lp(a)+10 ug/ml TLR2, 77.5 ug/ml Lp(a)+10 ug/ml TLR4, and 100 ng/mL Pam2CSK4. After 24 h stimulation, supernatant was collected and NFkB activation was assessed by measuring the levels of SEAP using QUANTI-Blue assay. Levels of SEAP were determined by reading the optical density at 640 nm. *p-value<0.0001 (ANOVA). […] THP1-Dual monocytes stimulated for 24 h with 77.5 ug/mL Lp(a), 77.5 ug/mL Lp(a)+10 ug/ml TLR2, 77.5 ug/ml LpA+10 ug/ml TLR4, and 100 ng/mL Pam2CSK4. After 24 h stimulation, supernatant was collected and IRF activation was assessed by measuring the levels of Lucia luciferase using QUANTI-Luc assay. Levels of Lucia luciferase were determined by measuring the relative light units (RLUs) in a luminometer at a 100 ms reading time.

Entries after “also recorded” stand apart in the source; their conditions may differ.

Pam2CSK4: in the series on CD142/TF [1], the “CD142/TF expression (viSNE plots, CD14+ monocytes)” value is “increased CD142/TF expression”.

Take Poly(I:C): the “CD142/TF expression (viSNE plots, CD14+ monocytes)” value with CD142/TF [1] is given as “increased CD142/TF expression”.

Take heparin: the “transcriptional induction of CD142/TF by LPS” value in the series on CD142/TF [2] (cotreatment with LPS and heparin, fold-change normalized to GAPDH and NT, #p=0.07) was “trend to blunted transcriptional expression; also recorded: seemed to blunt”. Also, the “signaling pathway activation or inflammatory transcriptional programs” value in the series with PBMC is “no effects”. The “phospho-STAT1 activation (phospho protein normalized to total protein)” value in the series with STAT1 is reported as “augmented; also recorded: increases in STAT1 activation”. The cytotoxicity entry with PBMCs is listed as “not cytotoxic”. Also, the “p-p65 and p-PKC activation” value in the series with p-p65 and p-PKC was “no differences”.

On to lipopolysaccharide [LPS], for which, in the series with TF/FVIIa complex (PBMC/monocytes stimulated with inflammatory stimulus, vs untreated), the “TF activity (FXa production)” value is “increases TF activity”. Moreover, in the series with CD142/Tissue factor (LPS 1 ug/ml, 2-4 h, vs no treatment (NT)), the “CD142/TF expression in monocytes” value is “induce TF expression; also recorded: rapid and robust induction; also recorded: rapidly drives TF expression”. Besides, the “CD142 expression (percent positive CD142+) in monocytes and granulocytes” value with CD142/Tissue factor is listed as “upregulated”. Moreover, the “TF induction in purified CD14+ Mϕ compared with bulk PBMC stimulation” value in the series with CD142/Tissue factor (response to LPS) is on record as “much less TF induction”. The CD142/TF transcriptional expression result in the series with CD142/TF [2] (LPS alone, CD14+ monocytes, vs NT) is “induced”. The “CD142/TF expression (viSNE plots, CD14+ monocytes)” value with CD142/TF [1] was “increased CD142/TF expression”.

lipoprotein (a) [Lp(a)]: in the series on CD142/Tissue factor, the “CD142 expression (percent positive CD142+) in monocytes and granulocytes” value was “upregulated”. Also, in the series with NFκB, the “NFκB induction (SEAP, optical density at 640 nm)” value is “increases”.

B1: Annexin V (protein, UniProt P08758 2-320, looked up)
Annexin A5: AQVLRGTVTDFPGFDERADAETLRKAMKGLGTDEESILTLLTSRSNAQRQEISAAFKTLFGRDLLDDLKSELTGKFEKLIVALMKPSRLYDAYELKHALKGAGTNEKVLTEIIASRTPEELRAIKQVYEEEYGSSLEDDVVGDTSGYYQRMLVVLLQANRDPDAGIDEAQVEQDAQALFQAGELKWGTDEEKFITIFGTRSVSHLRKVFDKYMTISGFQIEETIDRETSGNLEQLLLAVVKSIRSIPAYLAETLYYAMKGAGTDDHTLIRVMVSRSEIDLFNIRKEFRKNFATSLYSMIKGDTSGDYKKALLLLCGEDD
B1: the “CD142/Tissue factor activity (FXa generation) induced by LPS” value with TF/FVIIa complex (PBMC pre-treated 1 hr with Annexin V 10 ug/ml, then LPS 1 ug/ml 4 hours) was “blocks”. Also, the “CD142/Tissue factor induction by LPS” value in the series with CD142/Tissue factor is “blocks”; with CD142/Tissue factor (listed as AnnV), “greatly reduced”; in the series with CD142/Tissue factor (listed as annexin V), “dramatic blunting”.

These data come from patent US20230384330A1, “COMPOSITIONS AND METHODS RELATING TO THE IDENTIFICATION AND TREATMENT OF IMMUNOTHROMBOTIC CONDITIONS” (THE REGENTS OF THE UNIVERSITY OF MICHIGAN, priority 2020, published 2023).
